Key:
5-HT2C receptor = target: T1, 5-HT2C receptor (Homo sapiens, UniProt P28335); assay: radioligand ([3H]mesulergine) competitive binding assay for 5-HT2C receptor; details: choroid plexus or recombinant 5-HT2C receptor expressed in CHO-K1 cells; for IC50: read-out: binding affinity to 5-HT2C serotonin receptor expressed as IC50 value; for Ki: read-out: binding affinity to 5-HT2C serotonin receptor, Ki value
T1 construct: expressed in transfected cells; host or cells: CHO-K1 (or COS-7)
T1 sequence (P28335 33-458): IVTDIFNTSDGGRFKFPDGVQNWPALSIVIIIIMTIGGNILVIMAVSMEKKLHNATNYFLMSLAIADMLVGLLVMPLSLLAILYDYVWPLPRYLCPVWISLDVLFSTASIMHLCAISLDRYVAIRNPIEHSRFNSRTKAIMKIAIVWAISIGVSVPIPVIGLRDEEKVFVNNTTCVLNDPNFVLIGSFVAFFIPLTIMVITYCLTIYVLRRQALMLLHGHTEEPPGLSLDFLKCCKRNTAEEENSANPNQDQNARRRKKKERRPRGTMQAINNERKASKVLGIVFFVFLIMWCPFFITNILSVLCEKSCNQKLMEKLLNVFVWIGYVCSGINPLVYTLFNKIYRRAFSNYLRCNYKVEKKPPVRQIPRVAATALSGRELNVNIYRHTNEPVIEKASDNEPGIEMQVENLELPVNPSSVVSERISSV
Experimental: (§1) The effect of the compounds of the present invention on the neurochemical steady state was determined by in vitro investigations such as a radionuclide-marked radioligand binding assay for 5-HT2A (Bonhaus D. W. Br. J. Pharmacol. 1995, 115:622; Saucier C. J. Neurochem. 1997, 68:1998) and 5-HT2C receptors (Wolf W. A. J. Neurochem. 1997, 69:1449), in vitro binding assay for σ1 receptor (Thomson W. and Donn R. Arthritis Res. 2002, 4: 302-306) and by in vivo investigations in a tail suspension test (Vogel H. G. and Vogel W. H. Drug Discovery and Evaluation Pharmacological Assays, Springer 1997, 304), in amphethamine-induced hyperlocomotion in mice (Millan M. J. et al, 1998 J. Pharmacol. Exp. Ther. 287: 167-186), in a forced swim test in mice (Porsolt R. D. et al. Arch. Int. Pharmacodyn. 1977, 229:327-336), in meta-chlorophenyl piperazine (m-CPP) test on rats (Drug Dev. Res. 1989, 18:119-144), and in apomorphine, tryptamine, norepinephrine (ATN) test in rats (Arch. Int. Pharmacodyn. 1977, 227:238-253).
(§2) In Vitro Method for Determining Affinity for Binding to 5-HT2A and 5-HT2C Receptors
(§3) A small concentration of a radioligand having a great affinity for binding to a receptor was incubated with a tissue sample enriched with a certain receptor (1-5 mg of tissue) in a buffered medium (0.2-5 mL). Recombinant human HT2A and HT2C receptors were expressed in CHO-K1 or COS-7 cells and were also used for competitive binding. During incubation the radioligand bound to the receptor. When a binding balance was achieved, the receptors to which the radioligand was bound were separated from those to which said ligand was not bound, and the radioactivity of the receptor/radioligand complex was measured. The interaction of the tested compounds with receptors was tested in competitive binding experiments. Various concentrations of tested compounds were added to the incubation mixture containing a prepared tissue enriched with corresponding receptors and the radioligand. The radioligand binding was inhibited by the test compounds proportionally to the affinity of a certain compound for the receptor and to the concentration of the compound.
The radioligand used for the determination of binding to 5-HT2C receptor was [^3H]mesulergine and the tissue used was choroid plexus or recombinant 5-HT2C receptor expressed in CHO-K1 cells.

5-HT2A receptor = target: T2, 5-HT2A receptor (Homo sapiens, UniProt P28223); assay: radioligand ([3H]-ketanserin) competitive binding assay for 5-HT2A receptor; details: for IC50: human cortex or recombinant 5-HT2A receptor expressed in CHO-K1, read-out: binding affinity to 5-HT2A serotonin receptor expressed as IC50 value; for Ki: human cortex or recombinant 5-HT2A receptor expressed in CHO-K1, read-out: binding affinity to 5-HT2A serotonin receptor, Ki value
T2 construct: expressed in transfected cells; host or cells: CHO-K1 (or COS-7)
Experimental: as §1, §2, §3
The radioligand used for the determination of binding to 5-HT2A receptor was [^3H]-ketanserin and the tissue used was human cortex or recombinant 5-HT2A receptor expressed in CHO-K1.

T2 sequence (P28223 whole entry): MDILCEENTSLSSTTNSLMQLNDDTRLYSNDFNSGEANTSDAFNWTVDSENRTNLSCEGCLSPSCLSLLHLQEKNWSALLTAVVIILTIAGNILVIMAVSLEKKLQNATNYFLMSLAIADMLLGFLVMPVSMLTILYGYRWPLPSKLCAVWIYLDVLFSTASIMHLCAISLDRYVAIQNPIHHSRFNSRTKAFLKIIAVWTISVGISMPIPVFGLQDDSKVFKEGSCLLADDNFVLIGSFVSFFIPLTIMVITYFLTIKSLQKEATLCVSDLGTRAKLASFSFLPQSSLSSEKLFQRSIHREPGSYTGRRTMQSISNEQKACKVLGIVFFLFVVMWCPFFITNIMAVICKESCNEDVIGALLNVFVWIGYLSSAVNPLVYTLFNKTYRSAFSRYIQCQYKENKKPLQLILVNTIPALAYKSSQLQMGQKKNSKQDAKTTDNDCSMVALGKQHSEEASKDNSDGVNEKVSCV

Structure (SMILES) | IC50 (5-HT2C receptor) [nM] | Ki (5-HT2C receptor) [nM] | IC50 (5-HT2A receptor) [nM] | Ki (5-HT2A receptor) [nM]
Cc1onc2c1-c1ccccc1Sc1ccccc1-2 [Compound 1, 3-Methyl-2-oxa-8-thia-1-aza-dibenzo[e,h]azulene] | < 200 | < 100 | < 200 | < 100
CN(C)CCCOCc1onc2c1-c1ccccc1Sc1ccccc1-2 [Compound 7, Dimethyl-[3-(2-oxa-8-thia-1-aza-dibenzo[e,h]azulen-3-ylmethoxy)-propyl]-amine] | < 200 | < 100 | < 200 | < 100

Reference: US20070078124A1, “1-Aza-2-oxa-dibenzo(e,h)azulenes and their use for the treatment of central nervous system diseases and disorders” (PLIVA-ISTRAZIVACKI INSTITUT D.O.O., priority 2003, published 2007)
